Data from patent US4783461A, “3,6-disubstituted triazolo [3,4-A]phthalazine derivatives” (Gruppo Lepetit S.p.A., priority 1983, dated 1988).

Experiments:
[1] = biological target: rat brain benzodiazepine receptors (3H-diazepam receptor); assay: benzodiazepine-receptor binding test in vitro (inhibition of specific 3H-diazepam binding to rat brain membranes); details: 3H-diazepam displacement, read-out: inhibition constant Ki (Ki = IC50/(1+C/KD)) for specific 3H-diazepam binding
Source text: The pharmacological properties of the compounds of the present invention were first investigated by submitting some representative members of this class to the benzodiazepine-receptor binding-test in vitro.

rats = assay: conflict test in rats (punished responding, Vogel method as modified by Lippa); format: in vivo; details: Rattus norvegicus, ip, 1 h, i.p., tested 60 minutes after administration, read-out: minimal effective dose (MED) significantly increasing the number of shocks versus controls
Procedure: The ability of the compounds of the present invention to increase punished responding in animals in a conflict situation, a procedure with high validity for predicting the anxiolytic effect of drugs, was assessed by testing these compounds in rats according to the method described by J. R. Vogel, B. Beer, E. D. Clody in Psychopharmacologia 21, 1-7 (1971) as modified by A. S. Lippa et al., in "Anxiolytics, Industrial Pharmacology",Vol. 3, Futura Publishing, 1979, pages 41-81. Briefly, rats are deprived for water for 48 hours and deprived of food for 20 hours prior to testing. Sixty minutes after administration of the test compound each rat is placed in an especially equipped cage. A glucose solution is available from a tap located in the rear of the cage. A constant pulsating shocking current is connected between the grid floor and the tap. Each rat is allowed 20 seconds of non-shocked drinking, then cycles of 5 seconds shock-off and 5 seconds shock-on began. During the shock-on period each lick on the tap is accompanied by shock. The number of shocks received by each animal is recorded and minimal effective doses are determined.

SMILES | Ki [1] | minimal effective dose (rats)
COCCOCc1nn2c(-c3ccc(OC)cc3)nnc2c2ccccc12 [Example 1, 6-[(2-Methoxyethoxy)methyl]-3-(4-methoxyphenyl)-1,2,4-triazolo[3,4-a]phthalazine] | 20 nM | 5 mg/kg
COc1ccc(-c2nnc3c4ccccc4c(CN4CCCC4)nn23)cc1 [Example 2, 3-(4-Methoxyphenyl)-6-[(1-pyrrolidinyl)methyl]-1,2,4-triazolo[3,4-a]phthalazine] | 150 nM | –
